The values that follow come from publication doi:10.1101/2023.02.21.529347v1 (biorxiv, 2023).

Common to all, as to test: apparent steady-state kinetics of F420H2-dependent alkene reduction
The target in experiment [1] is T1, MSMEG_2850 (Mycolicibacterium smegmatis, UniProt A0QW82).
T1 sequence (A0QW82 1-140): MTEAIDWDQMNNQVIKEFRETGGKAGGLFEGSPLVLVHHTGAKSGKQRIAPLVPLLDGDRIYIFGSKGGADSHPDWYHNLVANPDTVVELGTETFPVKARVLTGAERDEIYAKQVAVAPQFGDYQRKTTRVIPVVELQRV
It counts as biochemical. The conditions noted are these: substrate inhibition constant; co-substrate F420H2.

Experiment [2] deals with T2, MSMEG_2027 (Mycolicibacterium smegmatis, UniProt A0QU01).
T2 sequence (A0QU01 1-140): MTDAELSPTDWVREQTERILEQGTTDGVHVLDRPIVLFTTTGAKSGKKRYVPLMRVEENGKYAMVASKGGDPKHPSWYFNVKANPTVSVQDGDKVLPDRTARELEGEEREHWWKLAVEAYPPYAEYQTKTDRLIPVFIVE
In kind it is biochemical. The conditions noted are these: substrate inhibition constant; co-substrate F420H2.

For experiment [3], the target named is T1, MSMEG_2850. The conditions noted are these: co-substrate F420H2; apparent value.

The Km is the substrate concentration at which the rate is half of its maximum.

Turning to `CC1=CC(=O)CC(C)(C)C1=O` [7a, ketoisophorone], the Ki in experiment [1] is on record as 47.9 ± 10.0 mM; in experiment [2] it was 26.9 ± 11.4 mM. On to `CC1=CC(=O)[C@H]2C[C@@H]1C2(C)C` [9a, (1S,5S)-(-)-verbenone], for which the Km in experiment [3] is 180 ± 30 µM.
